Reference: US12492169B2, “Aminopyridine compound and application thereof” (priority 2020, dated 2025)
Converted amounts (≈) assume the structure as drawn.

Assays:
[1] = tested on: Candida albicans WX-CA009; assay: Minimum inhibitory concentration (MIC) test against fungi; format: cell-based; settings: Candida albicans, WXCA009, 24 h, ≥50% growth inhibition by eye, three independent experiments, read-out: MIC
Protocol: (§1) To test the minimum inhibitory concentration (MIC) and minimum effective concentration (MEC) of the drug against fungi.
(§2) Experimental strains: Candida parapsilosis ATCC 22019; Candida albicans ATCC MYA-2876; Candida albicans WX-CA009; Candida glabrata ATCC15126; Candida tropicalis ATCC 750;
(§3) Test medium: RPMI1640 (containing 0.165 M MOPS, pH7.0)
(§4) On the day of the experiment, the compound in the bottle was dissolved in 100% DMSO to a stock solution concentration of 6.24 mg/mL. Then, the mixture was 10-fold diluted with DMSO to 0.624 mg/mL for use.
(§5) A 2-fold gradient dilution of the compound solution (0.624 mg/mL) was performed using DMSO on a 96-microwell plate (V-bottom) to obtain 100× working solutions (wells 1 to 11). 624, 312, 156, 78, 39, 20, 10, 5, 2.5, 1.25, 0.625 μg/mL. 100% DMSO was used as a positive control (well 12). This was the compound stock plate.
(§6) Candida parapsilosis ATCC 22019 and Candida albicans ATCC MYA-2876; Candida albicans WX-CA009; Candida glabrata ATCC15126; Candida tropicalis ATCC 750 frozen at −80° C. were streaked on SDA plates and incubated aerobically in a 35±2° C. incubator for 24 hours.
(§7) On the day of the experiment, for strains Candida parapsilosis ATCC 22019, Candida albicans ATCC MYA-2876; Candida albicans WX-CA009; Candida glabrata ATCC15126; Candida tropicalis ATCC 750 and Cryptococcus neoformans H99 ATCC 208821, the plates were taken out and the clones on the plates were picked, suspended in normal saline, and then the turbidity of the fungal suspension was adjusted to OD600=0.2 using a turbidimeter. The fungal suspension contained about 3.0×10^6 CFU/mL. Then the turbidity-adjusted fungal suspension was diluted with a test medium to a concentration of about 3.0×10^3 CFU/mL. This was the inoculum.
(§8) 2 μL of 100× working solution from the compound stock plate (prepared in 3.1) was transferred to a round-bottomed 96-well plate (containing 98 μL of test medium), and then 100 μL of fungus inoculum (prepared in 3.2) was added to each well to obtain a MIC test plate. Therefore, the final test concentrations of the compounds were 6.24, 3.12, 1.56, 0.78, 0.39, 0.20, 0.10, 0.05, 0.025, 0.0125, 0.006 μg/mL. 1% DMSO was used as a growth control.
(§9) For strains Candida parapsilosis ATCC 22019; Candida albicans ATCC MYA-2876; Candida albicans WX-CA009; Candida glabrata ATCC15126; Candida tropicalis ATCC 750, all test plates were incubated aerobically in a 35±2° C. incubator for 24 hours.
(§10) After incubation, according to the criteria in Table 1 below, the test plate was observed by eye or microscope to determine the MIC (g/mL) and MEC (g/mL) of the test compound against yeast and mold.

[2] = tested on: Candida parapsilosis ATCC 22019; assay: as above; format: cell-based; settings: Lodderomyces parapsilosis, ATCC22019, 24 h, ≥50% growth inhibition by eye, three independent experiments (1st, 2nd, 3rd time), read-out: MIC
Protocol: as §1, §2, §3, §4, §5, §6, §7, §8, §9, §10

## Nc1ccc(C#CCc2ccc(COc3ccccn3)cc2)cn1 [WX004]
[1]
  MIC: 0.025 mg/L (≈ 0.0793 µM)
[2]
  MIC: 0.05 mg/L (≈ 0.159 µM)
